According to EP0433662A2, “Acat inhibitors” (WARNER-LAMBERT COMPANY, priority 1989, dated 1991):

Experiments:
[1] = molecular target: acyl-CoA: cholesterol acyltransferase (ACAT); test: In vitro ACAT inhibition: radiolabeled cholesterol oleate formed from radiolabeled oleic acid in rabbit intestinal microsomes; assay type: biochemical; conditions: tissue preparation containing rabbit intestinal microsomes; concentration required to inhibit the activity of the enzyme by 50%
Description: The ability of representative compounds of the present invention to inhibit ACAT was measured using an in vitro test more fully described in F. J. Field and R. G. Salone, Biochemica et Biophysica 712:557-570 (1982). The test assesses the ability of a test compound to inhibit the acylation of cholesterol by oleic acid by measuring the amount of radiolabeled cholesterol oleate formed from radiolabeled oleic acid in a tissue preparation containing rabbit intestinal microsomes.
The data appear in Table 1 where they are expressed as ICso values; i.e., the concentration of test compound required to inhibit the activity of the enzyme by 50%.

male Sprague-Dawley rats = test: In vivo screen APCC: blood cholesterol in rats fed PCC diet overnight; conditions: blood cholesterol versus vehicle (CMC/Tween); dosed at 4 PM, PCC diet with 1 % or 0.5% cholic acid overnight, sacrificed at 8 AM; dose not given
Source text: In one in vivo screen designated APCC, male Sprague-Dawley rats (200 to 225 g) were randomly divided into treatment groups and dosed at 4 PM with either vehicle (CMC/Tween) or suspensions of compounds in vehicle. The normal chow diet was then replaced with the PCC diet with either 1 % or 0.5% cholic acid, as indicated. The rats consumed this diet ad libitum during the night and were sacrificed at 8 AM to obtain blood samples for cholesterol analysis using standard procedures. Statistical differences between mean cholesterol values for the same vehicle were determined using analysis of variance followed by Fisher's least significant test.

IC50 [1] | Structure (SMILES) | % Change (mg/dl) (male Sprague-Dawley rats)
13 nM | CC(C)c1cccc(C(C)C)c1NC(=O)CC(=O)N(Cc1ccccc1)Cc1ccccc1 [N'-[2,6-bis(1-methylethyl)-phenyl]-N,N-bis(phenylmethyl)-propanediamide] | -42%
20 nM | CC(C)c1cccc(C(C)C)c1NC(=O)CC(=O)N(C(C)C)C(c1ccccc1)c1ccccc1 [N'-[2,6-bis(1-methylethyl)-phenyl]-N-(diphenylmethyl)-N-(1-methylethyl)propanediamide] | -41%
770 nM | CC(C)c1cccc(C(C)C)c1NC(=O)CC(=O)NCC(c1ccccc1)c1ccccc1 [N-[2,6-Bis(1-methylethyl)phenyl]-N'-(2,2-diphenylethyl)propanediamide] | –
490 nM | CC(C)c1cccc(C(C)C)c1NC(=O)CC(=O)NC(c1ccccc1)c1ccccc1 [N-[2,6-bis(1-methylethyl)-phenyl-N'-(diphenylmethyl)-propanediamide] | -20%
990 nM | CC(C)c1cccc(C(C)C)c1NC(=O)CC(=O)NCC1(c2ccccc2)CCCC1 [N-[2,6-bis(1-methylethyl)-phenyl]-N'-(1-phenylcyclo-pentyl)methylpropanediamide] | +7%
